Test results taken from PubChem BioAssay (NCI).
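Following 48 hours of exposure in 96-well plates, responses at five concentrations were used to interpolate endpoints linearly. Here, GI50 denotes the concentration required for 50% inhibition of growth. At the TGI there is no net growth.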

Assays:
Test in all cases: growth of human tumour cells (NCI), 48 h; in the data active = GI50 below about 0.43 µM; inactive = the rest
LOX IMVI melanoma = tested on: LOX IMVI melanoma
NCI-H226 lung = tested on: NCI-H226 lung
KM12 colon = tested on: KM12 colon
OVCAR-8 ovarian = tested on: OVCAR-8 ovarian
SN12C renal = tested on: SN12C renal
ACHN renal = tested on: ACHN renal
HOP-92 NSCLC = tested on: HOP-92 NSCLC
UO-31 renal = tested on: UO-31 renal
CAKI-1 renal = tested on: CAKI-1 renal
MDA-MB-231 breast = tested on: MDA-MB-231 breast
RPMI-8226 leukemia = tested on: RPMI-8226 leukemia
NCI/ADR-RES ovarian = tested on: NCI/ADR-RES ovarian
SF-539 CNS = tested on: SF-539 CNS
SW-620 colon = tested on: SW-620 colon
SK-OV-3 ovarian = tested on: SK-OV-3 ovarian
RXF 393 renal = tested on: RXF 393 renal
MDA-MB-435 = tested on: MDA-MB-435
HL-60(TB) leukemia = tested on: HL-60(TB) leukemia
IGROV1 ovarian = tested on: IGROV1 ovarian
M14 melanoma = tested on: M14 melanoma
UACC-257 melanoma = tested on: UACC-257 melanoma
A498 renal = tested on: A498 renal
MALME-3M melanoma = tested on: MALME-3M melanoma
K-562 leukemia = tested on: K-562 leukemia
MCF7 breast = tested on: MCF7 breast
MOLT-4 leukemia = tested on: MOLT-4 leukemia
EKVX NSCLC = tested on: EKVX NSCLC
CCRF-CEM leukemia = tested on: CCRF-CEM leukemia
NCI-H460 lung = tested on: NCI-H460 lung
HOP-62 NSCLC = tested on: HOP-62 NSCLC
DU-145 prostate = tested on: DU-145 prostate
A549 NSCLC = tested on: A549 NSCLC
PC-3 prostate = tested on: PC-3 prostate
OVCAR-5 ovarian = tested on: OVCAR-5 ovarian
COLO 205 colon = tested on: COLO 205 colon
BT-549 breast = tested on: BT-549 breast
SF-295 CNS = tested on: SF-295 CNS
SK-MEL-28 melanoma = tested on: SK-MEL-28 melanoma
786-0 renal = tested on: 786-0 renal
HT29 colon = tested on: HT29 colon
HCT-15 colon = tested on: HCT-15 colon
NCI-H23 lung = tested on: NCI-H23 lung
SK-MEL-5 melanoma = tested on: SK-MEL-5 melanoma
T-47D breast = tested on: T-47D breast
SNB-19 CNS = tested on: SNB-19 CNS
NCI-H522 lung = tested on: NCI-H522 lung
SK-MEL-2 melanoma = tested on: SK-MEL-2 melanoma
HCT-116 colon = tested on: HCT-116 colon
U251 CNS = tested on: U251 CNS
SF-268 CNS = tested on: SF-268 CNS
HS 578T breast = tested on: HS 578T breast
SR leukemia = tested on: SR leukemia
OVCAR-4 ovarian = tested on: OVCAR-4 ovarian
TK-10 renal = tested on: TK-10 renal
SNB-75 CNS = tested on: SNB-75 CNS
HCC-2998 colon = tested on: HCC-2998 colon

COc1cccc2c1C=CC1(O2)Oc2cccc(OC)c2C=C1C (stereo unspecified)
587 nM: TGI (COLO 205 colon)
> 60200 nM: TGI (MDA-MB-231 breast)
1630 nM: TGI (RXF 393 renal)
5520 nM: TGI (U251 CNS)
> 43600 nM: TGI (HCT-15 colon)
6390 nM: TGI (BT-549 breast)
> 36400 nM: TGI (PC-3 prostate)
> 81700 nM: TGI (NCI/ADR-RES ovarian)
3950 nM: TGI (LOX IMVI melanoma)
active: GI50 (HOP-92 NSCLC) 316 nM | GI50 (RPMI-8226 leukemia) 352 nM | GI50 (NCI/ADR-RES ovarian) 417 nM | GI50 (SF-539 CNS) 363 nM | GI50 (RXF 393 renal) 300 nM | GI50 (MDA-MB-435) 226 nM | GI50 (HL-60(TB) leukemia) 364 nM | GI50 (M14 melanoma) 345 nM | GI50 (K-562 leukemia) 347 nM | GI50 (MCF7 breast) 383 nM | GI50 (CCRF-CEM leukemia) 356 nM | GI50 (NCI-H460 lung) 426 nM | GI50 (PC-3 prostate) 376 nM | GI50 (COLO 205 colon) 243 nM | GI50 (SF-295 CNS) 359 nM | GI50 (HT29 colon) 404 nM | GI50 (HCT-15 colon) 420 nM | GI50 (NCI-H522 lung) 290 nM | GI50 (HCT-116 colon) 413 nM | GI50 (U251 CNS) 415 nM | GI50 (SR leukemia) 284 nM | GI50 (SNB-75 CNS) 218 nM
> 44200 nM: TGI (SF-295 CNS)
1840 nM: TGI (SF-539 CNS)
48000 nM: TGI (MALME-3M melanoma)
> 100000 nM: TGI (NCI-H226 lung) | TGI (KM12 colon) | TGI (SN12C renal) | TGI (ACHN renal) | TGI (UO-31 renal) | TGI (CAKI-1 renal) | TGI (SW-620 colon) | TGI (SK-OV-3 ovarian) | TGI (HL-60(TB) leukemia) | TGI (IGROV1 ovarian) | TGI (UACC-257 melanoma) | TGI (K-562 leukemia) | TGI (MCF7 breast) | TGI (EKVX NSCLC) | TGI (HOP-62 NSCLC) | TGI (DU-145 prostate) | TGI (A549 NSCLC) | TGI (OVCAR-5 ovarian) | TGI (SK-MEL-28 melanoma) | TGI (NCI-H23 lung) | TGI (T-47D breast) | TGI (SNB-19 CNS) | TGI (SF-268 CNS) | TGI (HS 578T breast) | TGI (OVCAR-4 ovarian) | TGI (TK-10 renal)
1510 nM: TGI (SNB-75 CNS)
556 nM: TGI (MDA-MB-435)
4890 nM: TGI (M14 melanoma)
2060 nM: TGI (SR leukemia)
6820 nM: TGI (OVCAR-8 ovarian)
10500 nM: TGI (HCT-116 colon)
2350 nM: TGI (RPMI-8226 leukemia)
2490 nM: TGI (NCI-H460 lung)
11000 nM: TGI (SK-MEL-5 melanoma)
3320 nM: TGI (CCRF-CEM leukemia)
9320 nM: TGI (HCC-2998 colon)
inactive: GI50 (LOX IMVI melanoma) 515 nM | GI50 (NCI-H226 lung) 1750 nM | GI50 (KM12 colon) 544 nM | GI50 (OVCAR-8 ovarian) 1340 nM | GI50 (SN12C renal) 683 nM | GI50 (ACHN renal) 699 nM | GI50 (UO-31 renal) 1270 nM | GI50 (CAKI-1 renal) 461 nM | GI50 (MDA-MB-231 breast) 596 nM | GI50 (SW-620 colon) 434 nM | GI50 (SK-OV-3 ovarian) 700 nM | GI50 (IGROV1 ovarian) 794 nM | GI50 (UACC-257 melanoma) 1510 nM | GI50 (A498 renal) 486 nM | GI50 (MALME-3M melanoma) 899 nM | GI50 (MOLT-4 leukemia) 430 nM | GI50 (EKVX NSCLC) 2110 nM | GI50 (HOP-62 NSCLC) 1490 nM | GI50 (DU-145 prostate) 727 nM | GI50 (A549 NSCLC) 821 nM | GI50 (OVCAR-5 ovarian) 1300 nM | GI50 (BT-549 breast) 656 nM | GI50 (SK-MEL-28 melanoma) 2880 nM | GI50 (786-0 renal) 563 nM | GI50 (NCI-H23 lung) 1370 nM | GI50 (SK-MEL-5 melanoma) 521 nM | GI50 (T-47D breast) 858 nM | GI50 (SNB-19 CNS) 649 nM | GI50 (SK-MEL-2 melanoma) 588 nM | GI50 (SF-268 CNS) 1840 nM | GI50 (HS 578T breast) 2100 nM | GI50 (OVCAR-4 ovarian) 6390 nM | GI50 (TK-10 renal) 12200 nM | GI50 (HCC-2998 colon) 1430 nM
5430 nM: TGI (A498 renal)
